In article PMC6405842, “Identification of a novel scaffold for a small molecule GPR139 receptor agonist” (Scientific Reports, 2019):
Read-outs that look alike come from different tables or passages of the source.

Target: T1, GPR139 (Homo sapiens, UniProt Q6DWJ6)
T1 construct: host or cells: CHO-k1
T1 sequence (Q6DWJ6 1-353): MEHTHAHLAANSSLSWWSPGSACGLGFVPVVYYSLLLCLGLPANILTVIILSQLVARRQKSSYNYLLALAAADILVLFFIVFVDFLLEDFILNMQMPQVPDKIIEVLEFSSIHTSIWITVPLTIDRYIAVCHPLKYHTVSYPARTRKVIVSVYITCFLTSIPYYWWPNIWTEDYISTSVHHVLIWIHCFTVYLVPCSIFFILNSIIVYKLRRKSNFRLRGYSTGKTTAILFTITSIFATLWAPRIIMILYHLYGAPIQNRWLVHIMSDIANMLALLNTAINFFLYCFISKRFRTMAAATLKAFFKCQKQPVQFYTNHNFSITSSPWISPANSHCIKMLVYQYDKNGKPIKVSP
Assay: Fluo-4 calcium mobilization assay, agonist mode, concentration-response curves in CHO-GPR139 cells
Type: cell-based
Procedure: All compounds were tested on a CHO-k1 cell line stably expressing GPR139 (CHO-GPR139)[11] kindly provided by H. Lundbeck A/S, Denmark. GPR139-specific responses were assessed using a CHO-k1 cell line stably expressing the muscarinic acetylcholine receptor M1 (CHO-M1) (The Missouri S&T cDNA Resource Center, # CEM100TN00). The CHO-GPR139 cells were grown in Dulbecco’s modified Eagle’s medium (DMEM) F12-Kaighn’s (ThermoFisher Scientific # 21127) supplemented with 10% dialyzed fetal bovine serum (United States origin; ThermoFisher Scientific # 26400), 1% GlutaMAX-I (100X) (ThermoFisher Scientific # 35050061), and 100 units/mL penicillin and 100 µg/mL streptomycin (ThermoFisher Scientific # 15140122) and 1 mg/mL geneticin (ThermoFisher Scientific # 11811031). The CHO-M1 cells were grown in Ham’s F12 (ThermoFisher Scientific # 21765) supplemented with 10% fetal bovine serum (South American origin; ThermoFisher Scientific # 10270) + 100 units/mL penicillin and streptomycin and 0.25 mg/mL geneticin.
The Fluo-4 Ca^2+-assay was performed as described previously, with minor modifications. After 1 hour incubation with the Fluo-4 dye, the CHO-GPR139 cells were washed with 100 μL HEPES buffer (Hank’s Balanced Salt Solution (HBBS, ThermoFisher Scientific # 14175053) supplemented with 20 mM HEPES, 1 mM MgCl2, 1 mM CaCl2, pH = 7.4) and the compound library was then added in concentrations between 25–63 μM dissolved in HEPES buffer (supplemented with 2.5 mM probenecid and 1% DMSO) and pre-incubated for 10 min at 37 °C. 33 μL of 3.2 μM 1a were added automatically after baseline measurements. […] This set-up allowed us to identify both antagonists and agonists (Fig. 2).
Each compound, for which a concentration response curve was made, was tested at least three times in duplicate measurements. After the incubation with the Fluo-4 dye and a wash, 100 μL HEPES buffer (supplemented with 2.5 mM probenecid) was added to each well and incubated for 10 minutes at 37 °C before recording. 33 μL of compounds (4× concentrated) were added automatically after baseline measurements.
The Ca^2+ and ERK responses were normalized as indicated and the concentration response curves were fitted by Prism 6 software (GraphPad) using nonlinear regression in a sigmoidal model with variable slope, as has been previously described.

[1] = CHO-GPR139 cells, at least three independent concentration-response curves in duplicate, read-out: EC50
[2] = CHO-GPR139 cells, normalized to buffer (0%) and 8 μM 1a (100%)
[3] = calcium mobilization assay, GPR139, values printed with a minus sign, read-out: pEC50 ± SEM (converted)
[4] = calcium mobilization assay, efficacy normalized to compound 1a
[5] = Table S1, 11 primary screen hits
[6] = Table S1, 11 primary screen hits, read-out: EC50
[7] = Table S1, normalized to compound 1a

For `CC1(c2cccc3ccccc23)NC(=O)N(CC(=O)c2ccc3c(c2)OCO3)C1=O` (stereo not shown) [AC234], the “pEC50 ± S.E.M.” value (CHO-GPR139 cells) was 6.42 ± 0.07, the EC50 [1] was 380 nM and the “Emax ± S.E.M.” value [2] was 99 ± 3%.
For `CC(=O)Oc1cccc2c1C(=O)c1c(OC(C)=O)cc(C(=O)O)cc1C2=O` [AC201], the EC50 (calcium mobilization assay, GPR139, read-out: EC50) was 1800 nM, the EC50 [3] was 1780 nM and the Emax [4] was 96%.
`COc1ccc(C(=O)CN2C(=O)NC(C)(c3ccc4c(c3)OCO4)C2=O)cc1OC` (stereo not shown) [AC138] was tested, and the “pEC50 ± S.E.M.” value (CHO-GPR139 cells) was 6.10 ± 0.14, the EC50 [1] was 790 nM and the “Emax ± S.E.M.” value [2] was 100 ± 5%.
For `CC1(c2ccc3c(c2)OCO3)NC(=O)N(CC(=O)N2CCCc3ccccc32)C1=O` (stereo not shown) [AC202], the “pEC50 ± S.E.M.” value (CHO-GPR139 cells) was 6.47 ± 0.09, the EC50 [1] was 340 nM and the “Emax ± S.E.M.” value [2] was 102 ± 2%.
In the case of `CC1(c2cccc3ccccc23)NC(=O)N(CC(=O)NCCc2ccccc2)C1=O` (stereo not shown) [AC243], the “pEC50 ± S.E.M.” value (CHO-GPR139 cells) is reported as 6.45 ± 0.11, the EC50 [1] is reported as 350 nM and the “Emax ± S.E.M.” value [2] is reported as 86 ± 5%.
For `CC(C)OCCCNC(=O)NC(C)c1cccc(Cl)c1` (stereo not shown) [AC76], the “pEC50 ± S.E.M.” value (CHO-GPR139 cells) was 6.03 ± 0.10, the EC50 [1] was 940 nM and the “Emax ± S.E.M.” value [2] was 97 ± 4%.
With `CC1(c2cccc3ccccc23)NC(=O)N(CC(=O)c2cc3ccccc3o2)C1=O` (stereo not shown) [AC233] the “pEC50 ± S.E.M.” value (CHO-GPR139 cells) was 6.47 ± 0.19, the EC50 [1] was 340 nM and the “Emax ± S.E.M.” value [2] was 80 ± 6%.
In the case of `Cc1ccc(CNC(=O)NCC2CN(CC(C)C)CCO2)cc1` (stereo not shown) [AC13], the pEC50 ± S.E.M. [5] is reported as 4.68 ± 0.13, the EC50 [6] is reported as 20700 nM and the “Emax ± S.E.M.” value [7] is reported as 90 ± 5%.
With `O=C(NCCc1cc(Cl)c2c(c1)OCCO2)NCc1cccnc1-n1ccnc1` [AC37] the pEC50 ± S.E.M. [5] was 5.55 ± 0.19, the EC50 [6] was 2800 nM and the “Emax ± S.E.M.” value [7] was 105 ± 8%.
With `CC(C)OCCCNC(=O)NC(C)c1ccccc1Cl` (stereo not shown) [AC77] the “pEC50 ± S.E.M.” value (CHO-GPR139 cells) was 6.22 ± 0.17, the EC50 [1] was 600 nM and the “Emax ± S.E.M.” value [2] was 102 ± 4%.
For `CC1(c2ccc3c(c2)OCO3)NC(=O)N(CC(=O)N2CCCCC2)C1=O` (stereo not shown) [AC192], the “pEC50 ± S.E.M.” value (CHO-GPR139 cells) was 6.12 ± 0.13, the EC50 [1] was 750 nM and the “Emax ± S.E.M.” value [2] was 95 ± 1%.
In the case of `CCc1cccc2c(C(=O)CN3C(=O)NC(C)(c4ccc5c(c4)OCCO5)C3=O)c[nH]c12` (stereo not shown) [AC210], the “pEC50 ± S.E.M.” value (CHO-GPR139 cells) is reported as 6.20 ± 0.24, the EC50 [1] is reported as 630 nM and the “Emax ± S.E.M.” value [2] is reported as 115 ± 8%.
With `CC1CC(C)CN(C(=O)CN2C(=O)NC(C)(c3cccc4ccccc34)C2=O)C1` (stereo not shown) [AC186] the “pEC50 ± S.E.M.” value (CHO-GPR139 cells) was 6.39 ± 0.12, the EC50 [1] was 410 nM and the “Emax ± S.E.M.” value [2] was 89 ± 5%.
With `CN(CC(=O)NC1CC1)C(=O)COc1ccc2oc3c(c2c1)CCCC3` [AC16] the pEC50 ± S.E.M. [5] was 4.92 ± 0.12, the EC50 [6] was 11900 nM and the “Emax ± S.E.M.” value [7] was 44 ± 4%.
For `C=C(C)CN(CC)C(=O)CN1C(=O)NC(C)(c2cccc3ccccc23)C1=O` (stereo not shown) [AC230], the “pEC50 ± S.E.M.” value (CHO-GPR139 cells) was 6.31 ± 0.27, the EC50 [1] was 490 nM and the “Emax ± S.E.M.” value [2] was 89 ± 1%.
With `COc1ccc(OC)c(C(=O)CN2C(=O)NC(C)(c3ccc4c(c3)OCO4)C2=O)c1` (stereo not shown) [AC137] the “pEC50 ± S.E.M.” value (CHO-GPR139 cells) was 6.27 ± 0.08, the EC50 [1] was 540 nM and the “Emax ± S.E.M.” value [2] was 92 ± 3%.
In the case of `O=C(NCCCc1nc2ccccc2[nH]1)NC1CCSc2ccc(F)cc21` (stereo not shown) [AC14], the “pEC50 ± S.E.M.” value (CHO-GPR139 cells) is reported as 6.11 ± 0.12, the EC50 [1] is reported as 780 nM and the “Emax ± S.E.M.” value [2] is reported as 93 ± 3%.
For `CC(NC(=O)NCC(=O)NCC1CC1)c1ccc(F)cc1Cl` (stereo not shown) [AC178], the “pEC50 ± S.E.M.” value (CHO-GPR139 cells) was 6.55 ± 0.07, the EC50 [1] was 280 nM and the “Emax ± S.E.M.” value [2] was 97 ± 5%.
`CC1(c2ccc3c(c2)OCCO3)NC(=O)N(CC(=O)c2c[nH]c3ccccc23)C1=O` (stereo not shown) [AC200] was tested, and the “pEC50 ± S.E.M.” value (CHO-GPR139 cells) was 6.34 ± 0.11, the EC50 [1] was 460 nM and the “Emax ± S.E.M.” value [2] was 111 ± 5%.
`CC1(C2CC2)NC(=O)N(CC(=O)N2CCCSc3ccccc32)C1=O` (stereo not shown) [AC11] was tested, and the pEC50 ± S.E.M. [5] was 5.15 ± 0.12, the EC50 [6] was 7070 nM and the “Emax ± S.E.M.” value [7] was 33 ± 3%.
`Cc1ccc(C2(C)NC(=O)N(Cc3cn4cc(Cl)ccc4n3)C2=O)cc1` (stereo not shown) [AC10] was tested, and the pEC50 ± S.E.M. [5] was 5.55 ± 0.03, the EC50 [6] was 2830 nM and the “Emax ± S.E.M.” value [7] was 89 ± 5%.
`CC(C)(C)c1cc(NC(=O)Nc2ccc(-c3cn4c(n3)sc3cc(OCCN5CCOCC5)ccc34)cc2)no1` [AC220] showed an EC50 [1] of 490 nM and an Emax [2] of 103 ± 3%.
`CC1(c2ccc3c(c2)OCCO3)NC(=O)N(CC(=O)c2ccc3c(c2)OCO3)C1=O` (stereo not shown) [AC205] was tested, and the “pEC50 ± S.E.M.” value (CHO-GPR139 cells) was 6.36 ± 0.14, the EC50 [1] was 440 nM and the “Emax ± S.E.M.” value [2] was 100 ± 3%.
In the case of `CC1(c2ccc3c(c2)OCCO3)NC(=O)N(CC(=O)N2CCc3ccccc3C2)C1=O` (stereo not shown) [AC209], the “pEC50 ± S.E.M.” value (CHO-GPR139 cells) is reported as 6.54 ± 0.17, the EC50 [1] is reported as 290 nM and the “Emax ± S.E.M.” value [2] is reported as 107 ± 3%.
For `CC1(c2cccc3ccccc23)NC(=O)N(CC(=O)N2CCCCCC2)C1=O` (stereo not shown) [AC187], the “pEC50 ± S.E.M.” value (CHO-GPR139 cells) was 6.13 ± 0.22, the EC50 [1] was 740 nM and the “Emax ± S.E.M.” value [2] was 102 ± 5%.
`Cc1ccc(C(=O)CN2C(=O)NC(C)(c3ccc4c(c3)OCO4)C2=O)cc1` (stereo not shown) [AC136] was tested, and the “pEC50 ± S.E.M.” value (CHO-GPR139 cells) was 6.01 ± 0.03, the EC50 [1] was 990 nM and the “Emax ± S.E.M.” value [2] was 67 ± 6%.
`CC(C)OCCCNC(=O)NC(C)c1ccc2c(c1)OCO2` (stereo not shown) [AC12] was tested, and the pEC50 ± S.E.M. [5] was 5.43 ± 0.19, the EC50 [6] was 3740 nM and the “Emax ± S.E.M.” value [7] was 116 ± 8%.
With `C=CCN(CC=C)C(=O)CN1C(=O)NC(C)(c2cccc3ccccc23)C1=O` (stereo not shown) [AC229] the “pEC50 ± S.E.M.” value (CHO-GPR139 cells) was 6.36 ± 0.16, the EC50 [1] was 430 nM and the “Emax ± S.E.M.” value [2] was 95 ± 2%.
Work on `O=C(O)C1CC=CCC1c1nnc(CSc2ccc(Cl)cc2)o1` (stereo not shown) [AC004] yielded an EC50 [3] of 219 nM and an Emax [4] of 116%.
In the case of `CC(C)COCCCNC(=O)NC(C)c1ccc(Br)cc1` (stereo not shown) [AC82], the “pEC50 ± S.E.M.” value (CHO-GPR139 cells) is reported as 6.54 ± 0.08, the EC50 [1] is reported as 290 nM and the “Emax ± S.E.M.” value [2] is reported as 102 ± 6%.
For `C=CCN(CC=C)C(=O)CN1C(=O)NC(C)(c2ccc3c(c2)OCO3)C1=O` (stereo not shown) [AC7], the “pEC50 ± S.E.M.” value (CHO-GPR139 cells) was 6.41 ± 0.12, the EC50 [1] was 390 nM and the “Emax ± S.E.M.” value [2] was 112 ± 5%.
For `CC1(c2cccc3ccccc23)NC(=O)N(CC(=O)c2ccc(CCNS(C)(=O)=O)s2)C1=O` (stereo not shown) [AC241], the “pEC50 ± S.E.M.” value (CHO-GPR139 cells) was 6.38 ± 0.06, the EC50 [1] was 420 nM and the “Emax ± S.E.M.” value [2] was 88 ± 3%.
For `CC1(c2ccc3c(c2)OCCO3)NC(=O)N(CC(=O)c2ccc[nH]2)C1=O` (stereo not shown) [AC191], the “pEC50 ± S.E.M.” value (CHO-GPR139 cells) was 6.46 ± 0.16, the EC50 [1] was 350 nM and the “Emax ± S.E.M.” value [2] was 99 ± 2%.
